Laboratory results from patent EP2818472A1, “Imidazo[4,5-c]pyridine and pyrrolo[3,2-c]pyridine compounds as G-protein-coupled receptor kinase 5 (GRK5) modulators” (Max-Planck-Gesellschaft zur Förderung der Wissenschaften …, priority 2013, dated 2014).

Columns and labels:
beta-TC6 cells [1] = experiment: Insulin HTRF assay (relative activity Ar) in beta-TC6 cells; type: cell-based, mouse; conditions: Mus musculus, Beta-TC6, 4 h, insulin HTRF, supernatant of beta-TC6 cells, incubation with test compound at 37°C for 2, 3, 4h; read-out: Ar (relative activity)
How it was run: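 beta-TC6 cells (15k/well, seeded 24 or 48 h) washed, then exposed to compound in induction buffer (0.5% DMSO final) for 2, 3 or 4 h at 37°C.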

beta-TC6 cells [2] = experiment: Insulin release by beta-TC6 cells in high glucose medium, rat/mouse insulin ELISA; type: cell-based; conditions: 2 h; for Insulin release by beta-TC6 cells at 5µM [%]: 5 µM compound, high glucose (4.5 g/L) DMEM, % increase in regard to the DMSO control (set at 0%); for effect on the insulin release by beta-TC6 cells compared with the positive control Sunitinib: 5 µM, high glucose (4.5 g/L)
Procedure: After having identified the most promising compounds acting as GRK5 inhibitors and determined the IC50 values, the effect of the compounds of the example 2 on the release of insulin by beta-TC6 was determined. […] Release of insulin was detected using a rat/mouse insulin ELISA.
To order to measure the insulin released by beta-TC6 insulinoma (mouse) cells upon treatment with the compounds of the present invention, beta-TC6 insulinoma (mouse)cells were washed and incubated for 2 h in high (4.5 g/L) or low (1.125 g/L) glucose media at 37 °C. After incubation, the supernatant of the beta-TC6 insulinoma cells was diluted 1:20. The insulin release was measured with rat/mouse insulin ELISA (Merck Millipore Darmstadt, Cat. # EZRMI-13K) by following the manufacture protocol. The enzyme activity of the horseradish peroxidase of the immobilized biotinylated antibodies was monitored spectrophotometrically by the increased absorbency at 490 nm, and corrected by the absorbency at 610 nm. […] Table 3: Insulin release by beta-TC6 cells treated with the compounds of the present invention (the % values are in regard to the DMSO control, thus 30% means an increase of insulin release of 30% in regard to the physiological conditions where the insulin release is set at 0%)

C2C12 cells = experiment: 2-NBDG glucose uptake in C2C12 cells, flow cytometry; type: cell-based; conditions: 5 µM compound, 1 h, glucose free media with 100 µM 2-NBDG
Procedure: To investigate the impact of the GRK5 inhibitors on glucose uptake, the fluorescent D-glucose analog 2-[N-(7-nitrobenz-2-oxa-1,3-diazol-4-yl)-amino]-2-deoxy-D-glucose (2-NBDG) was used. 2-NBDG is a fluorescently-labeled deoxyglucose analog that is commonly used to directly monitor glucose uptake by living cells. For 2-NBDG detection, cells were cultured for 1 h together with 5 µM of an inventive compound in glucose free media supplied with 100 µM 2-NBDG at 37 °C before collecting. Furthermore, as internal controls, samples of glucose free media, respectively glucose free media with test compound, were tested. Subsequently, cells were washed, trypsinized and harvested in ice-cold PBS before centrifuged at 1.6 x10^3 rpm at 4°C. Cells were analyzed by flow cytometry (FACS Calibur, BD Bioscience, respectively a BD Accuri® C6 Flow Cytometer). For evaluation, cells were gated using the side- and forward scatter SSC/FSC and quantified by excited at 488 nm and collected at […] (FL1). Table 4: 2-NBDG glucose uptake (%) by cells treated with the compounds of the present application

beta-TC6 cells [3] = experiment: Glucose dependent insulin release by beta-TC6 cells in low glucose medium, rat/mouse insulin ELISA; type: cell-based; design: unit not given here; conditions: media with 1.125 mM (20 mg/dL) glucose, 2 h, compared with DMSO control

SMILES | Emax (beta-TC6 cells [1]) | Insulin release by beta-TC6 cells at 5µM [%] (beta-TC6 cells [2]) | 2-NBDG Glucose Uptake [%] (C2C12 cells) | insulin release in low glucose media (beta-TC6 cells [3]) | effect on the insulin release by beta-TC6 cells compared with the positive control Sunitinib (beta-TC6 cells [2])
COc1ccc(-c2nc3c(Nc4ccc(OC)c(OC)c4)nccc3[nH]2)cc1 [Compound 392, N-(3,4-dimethoxyphenyl)-2-(4-methoxyphenyl)-1H-imidazo[4,5-c]pyridin-4-amine] | 50 to 100% | 30.52% |  |  | 
COc1ccccc1-c1cc2c(Nc3ccc(SC)cc3)nccc2n1C [Compound 305, 2-(2-methoxyphenyl)-1-methyl-N-(4-methylsulfanylphenyl)pyrrolo[3,2-c]pyridin-4-amine] | 30 to 50% | 20.24% | 50.81% |  | 
CCN(CC)CCNC(=O)c1c(C)[nH]c(/C=C2\C(=O)Nc3ccc(F)cc32)c1C [Sunitinib] |  |  |  | 0.77 ± 0.03 | 
CN1CCN(c2ccc(Nc3cc4[nH]c(-c5cccc(N)c5)cc4cn3)cc2)CC1 [Compound 3, 2-(3-aminophenyl)-N-[4-(4-methylpiperazin-1-yl)phenyl]-1H-pyrrolo[3,2-c]pyridin-6-amine] | > 100% | 15.43% | 38.51% |  | 
NC(=O)c1ccc(Nc2cc3[nH]c(-c4cccc(F)c4)cc3cn2)cc1 [Compound 6, 4-[[2-(3-fluorophenyl)-1H-pyrrolo[3,2-c]pyridin-6-yl]amino]benzamide] | 50 to 100% | 81.25% | 45.35% |  | level similar to Sunitinib
COc1ccc(Nc2cc3c(cn2)cc(-c2cnn(C)c2)n3C)cc1 [Compound 137, N-(4-methoxyphenyl)-1-methyl-2-(1-methylpyrazol-4-yl)pyrrolo[3,2-c]pyridin-6-amine] | 50 to 100% |  | 69.73% |  | 
COc1ccc(Nc2nccc3[nH]c(-c4cccc(OC)c4F)nc23)cc1 [Compound 475, 2-(2-fluoro-3-methoxy-phenyl)-N-(4-methoxyphenyl)-1H-imidazo[4,5-c]pyridin-4-amine] | 50 to 100% | 48.72% |  |  | 
Cn1c(-c2cccnc2)cc2c(Nc3cccc(C(F)(F)F)c3)nccc21 [Compound 243, 1-methyl-2-(3-pyridyl)-N-[3-(trifluoromethyl)phenyl]pyrrolo[3,2-c]pyridin-4-amine] | 0 to 30% | 142.26% | 48.87% |  | better effect on the insulin release by beta-TC6 cells than the positive control Sunitinib
CC(=O)Nc1cccc(Nc2cc3[nH]c(-c4ccccc4)cc3cn2)c1 [Compound 183, N-[3-[(2-phenyl-1H-pyrrolo[3,2-c]pyridin-6-yl)amino]phenyl]acetamide] | 50 to 100% |  |  |  | 
CNc1nc2cnc(Nc3cccc(NC(C)=O)c3)cc2n1-c1cc(OC)c(OC)c(OC)c1 [Compound 493, N-[3-[[2-(methylamino)-1-(3,4,5-trimethoxyphenyl)imidazo[4,5-c]pyridin-6-yl]amino]phenyl]acetamide] | 50 to 100% |  |  |  | 
CS(=O)(=O)c1ccc(Nc2cc3[nH]c(-c4ccccn4)cc3cn2)cc1 [Compound 72, N-(4-methylsulfonylphenyl)-2-(2-pyridyl)-1H-pyrrolo[3,2-c]pyridin-6-amine] | > 100% |  |  |  | 
COc1ccc(Nc2nccc3c2cc(-c2ccsc2)n3C)cc1O [Compound 284, 2-methoxy-5-[[1-methyl-2-(3-thienyl)pyrrolo[3,2-c]pyridin-4-yl]amino]phenol] | 50 to 100% |  |  |  | 
